# Test results as given in PMC7109729 (Haematologica, 2020).
# Target: T1, peroxisome proliferator-activated receptor-γ (PPARγ) (Homo sapiens, UniProt P37231)
# T1 sequence (P37231 223-505 limits assumed): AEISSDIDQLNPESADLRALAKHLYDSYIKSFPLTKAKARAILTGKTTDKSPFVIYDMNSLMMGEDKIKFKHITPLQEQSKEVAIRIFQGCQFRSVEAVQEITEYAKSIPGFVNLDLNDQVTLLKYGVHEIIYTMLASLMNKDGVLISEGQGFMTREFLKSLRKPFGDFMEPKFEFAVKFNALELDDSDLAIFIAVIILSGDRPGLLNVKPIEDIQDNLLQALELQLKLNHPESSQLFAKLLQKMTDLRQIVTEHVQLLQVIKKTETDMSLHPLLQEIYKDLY
# Experiment: SPR
# Assay type: binding
compound,measurement,value
"CC(C)/N=c1\cc2n(-c3ccc(Cl)cc3)c3ccccc3nc-2cc1Nc1ccc(Cl)cc1 [CFZ, clofazimine]",Kd,79 nM
